In ChEMBL document CHEMBL4619795, “Establishing the Structure-Activity Relationship of Daptomycin” (ACS Med Chem Lett, 2020):

Experiments:
Type in all cases: functional
[1] = tested on: Staphylococcus aureus; assay: Antibacterial activity against methicillin-resistant Staphylococcus aureus 14 assessed as bacterial growth inhibition in presence of 50 ug/ml calcium ions by CLSI protocol based broth microdilution method
[2] = tested on: Staphylococcus aureus; assay: Antibacterial activity against methicillin-resistant Staphylococcus aureus 11 assessed as bacterial growth inhibition in presence of 50 ug/ml calcium ions by CLSI protocol based broth microdilution method
[3] = tested on: Staphylococcus aureus; assay: Antibacterial activity against Staphylococcus aureus ATCC 29213 assessed as bacterial growth inhibition in presence of 50 ug/ml calcium ions by CLSI protocol based broth microdilution method
[4] = tested on: Staphylococcus aureus; assay: Antibacterial activity against methicillin-resistant Staphylococcus aureus 88 assessed as bacterial growth inhibition in presence of 50 ug/ml calcium ions by CLSI protocol based broth microdilution method
[5] = tested on: Staphylococcus aureus; assay: Antibacterial activity against methicillin-resistant Staphylococcus aureus 86 assessed as bacterial growth inhibition in presence of 50 ug/ml calcium ions by CLSI protocol based broth microdilution method
[6] = tested on: Enterococcus faecalis; assay: Antibacterial activity against Streptococcus faecalis assessed as bacterial growth inhibition in presence of 50 ug/ml calcium ions by CLSI protocol based broth microdilution method
[7] = tested on: Enterococcus; assay: Antibacterial activity against Enterococcus 60 assessed as bacterial growth inhibition in presence of 50 ug/ml calcium ions by CLSI protocol based broth microdilution method
[8] = tested on: Enterococcus; assay: Antibacterial activity against Enterococcus 6 assessed as bacterial growth inhibition in presence of 50 ug/ml calcium ions by CLSI protocol based broth microdilution method
[9] = tested on: Enterococcus faecalis; assay: Antibacterial activity against Enterococcus faecalis ATCC 29212 assessed as bacterial growth inhibition in presence of 50 ug/ml calcium ions by CLSI protocol based broth microdilution method

## CCCCCCCCCC(=O)N[C@@H](Cc1c[nH]c2ccccc12)C(=O)N[C@@H](CC(N)=O)C(=O)N[C@@H](CC(=O)O)C(=O)N[C@@H]1C(=O)NCC(=O)N[C@@H](Cc2ccc(O)cc2)C(=O)N[C@@H](CC(=O)O)C(=O)N[C@H](C)C(=O)N[C@@H](CC(=O)O)C(=O)NCC(=O)N[C@H](CO)C(=O)N[C@@H]([C@@H](C)CC(=O)O)C(=O)N[C@@H](CC(=O)c2ccccc2N)C(=O)O[C@@H]1C
[1]
  MIC: 0.5 µg/mL
[2]
  MIC: 1 µg/mL
[3]
  MIC: 1 µg/mL
[4]
  MIC: 4 µg/mL
[5]
  MIC: 4 µg/mL
[6]
  MIC: ≥ 32 µg/mL
[7]
  MIC: 16 µg/mL
[8]
  MIC: ≥ 32 µg/mL
[9]
  MIC: ≥ 32 µg/mL

## CCCCCCCCCC(=O)N[C@@H](Cc1c[nH]c2ccccc12)C(=O)N[C@@H](CC(N)=O)C(=O)N[C@@H](CC(=O)O)C(=O)N[C@@H]1C(=O)NCC(=O)N[C@@H]([C@@H](C)O)C(=O)N[C@@H](CC(=O)O)C(=O)N[C@H](C)C(=O)N[C@@H](CC(=O)O)C(=O)NCC(=O)N[C@H](CO)C(=O)N[C@@H]([C@@H](C)CC(=O)O)C(=O)N[C@@H](CC(=O)c2ccccc2N)C(=O)O[C@@H]1C
[1]
  MIC: 16 µg/mL
[2]
  MIC: 16 µg/mL
[3]
  MIC: 2 µg/mL
[4]
  MIC: 2 µg/mL
[5]
  MIC: 2 µg/mL
[6]
  MIC: ≥ 32 µg/mL
[7]
  MIC: ≥ 32 µg/mL
[8]
  MIC: ≥ 32 µg/mL
[9]
  MIC: ≥ 32 µg/mL

## CCCCCCCCCC(=O)N[C@@H](Cc1c[nH]c2ccccc12)C(=O)N[C@@H](CC(N)=O)C(=O)N[C@@H](CC(=O)O)C(=O)N[C@@H]1C(=O)NCC(=O)N[C@@H](CO)C(=O)N[C@@H](CC(=O)O)C(=O)N[C@H](C)C(=O)N[C@@H](CC(=O)O)C(=O)NCC(=O)N[C@H](CO)C(=O)N[C@@H]([C@@H](C)CC(=O)O)C(=O)N[C@@H](CC(=O)c2ccccc2N)C(=O)O[C@@H]1C
[1]
  MIC: 4 µg/mL
[2]
  MIC: 4 µg/mL
[3]
  MIC: 2 µg/mL
[4]
  MIC: 1 µg/mL
[5]
  MIC: 2 µg/mL
[6]
  MIC: 4 µg/mL
[7]
  MIC: ≥ 32 µg/mL
[8]
  MIC: 32 µg/mL
[9]
  MIC: ≥ 32 µg/mL

## CCCCCCCCCC(=O)N[C@@H](Cc1c[nH]c2ccccc12)C(=O)N[C@@H](CC(N)=O)C(=O)N[C@@H](CC(=O)O)C(=O)N[C@@H]1C(=O)NCC(=O)N[C@@H](CCCN)C(=O)N[C@@H](C)C(=O)N[C@H](C)C(=O)N[C@@H](CC(=O)O)C(=O)NCC(=O)N[C@H](CO)C(=O)N[C@@H]([C@@H](C)CC(=O)O)C(=O)N[C@@H](CC(=O)c2ccccc2N)C(=O)O[C@@H]1C
[1]
  MIC: ≥ 64 µg/mL
[2]
  MIC: ≥ 64 µg/mL
[3]
  MIC: ≥ 64 µg/mL
[4]
  MIC: ≥ 64 µg/mL
[5]
  MIC: ≥ 64 µg/mL
[6]
  MIC: ≥ 64 µg/mL
[7]
  MIC: ≥ 64 µg/mL
[8]
  MIC: ≥ 64 µg/mL
[9]
  MIC: ≥ 64 µg/mL

## CCCCCCCCCC(=O)N[C@@H](Cc1c[nH]c2ccccc12)C(=O)N[C@@H](CC(N)=O)C(=O)N[C@@H](CC(=O)O)C(=O)N[C@@H]1C(=O)NCC(=O)N[C@@H]([C@@H](C)CC)C(=O)N[C@@H](CC(=O)O)C(=O)N[C@H](C)C(=O)N[C@@H](CC(=O)O)C(=O)NCC(=O)N[C@H](CO)C(=O)N[C@@H]([C@@H](C)CC(=O)O)C(=O)N[C@@H](CC(=O)c2ccccc2N)C(=O)O[C@@H]1C
[1]
  MIC: ≥ 32 µg/mL
[2]
  MIC: ≥ 32 µg/mL
[3]
  MIC: 8 µg/mL
[4]
  MIC: 4 µg/mL
[5]
  MIC: 8 µg/mL
[6]
  MIC: ≥ 64 µg/mL
[7]
  MIC: 32 µg/mL
[8]
  MIC: ≥ 64 µg/mL
[9]
  MIC: ≥ 64 µg/mL

## CCCCCCCCCC(=O)N[C@@H](Cc1c[nH]c2ccccc12)C(=O)N[C@@H](CC(N)=O)C(=O)N[C@@H](C)C(=O)N[C@@H]1C(=O)NCC(=O)N[C@@H](CCCN)C(=O)N[C@@H](CC(=O)O)C(=O)N[C@H](C)C(=O)N[C@@H](CC(=O)O)C(=O)NCC(=O)N[C@H](CO)C(=O)N[C@@H]([C@@H](C)CC(=O)O)C(=O)N[C@@H](CC(=O)c2ccccc2N)C(=O)O[C@@H]1C
[1]
  MIC: ≥ 32 µg/mL
[2]
  MIC: ≥ 32 µg/mL
[3]
  MIC: 16 µg/mL
[4]
  MIC: 16 µg/mL
[5]
  MIC: 16 µg/mL
[6]
  MIC: ≥ 32 µg/mL
[7]
  MIC: ≥ 32 µg/mL
[8]
  MIC: ≥ 32 µg/mL
[9]
  MIC: ≥ 32 µg/mL

## CCCCCCCCCC(=O)N[C@@H](Cc1c[nH]c2ccccc12)C(=O)N[C@@H](CC(N)=O)C(=O)N[C@@H](CC(=O)O)C(=O)N[C@@H]1C(=O)NCC(=O)N[C@@H](Cc2c[nH]c3ccccc23)C(=O)N[C@@H](CC(=O)O)C(=O)N[C@H](C)C(=O)N[C@@H](CC(=O)O)C(=O)NCC(=O)N[C@H](CO)C(=O)N[C@@H]([C@@H](C)CC(=O)O)C(=O)N[C@@H](CC(=O)c2ccccc2N)C(=O)O[C@@H]1C
[1]
  MIC: 1 µg/mL
[2]
  MIC: 2 µg/mL
[3]
  MIC: 4 µg/mL
[4]
  MIC: 2 µg/mL
[5]
  MIC: 4 µg/mL
[6]
  MIC: 2 µg/mL
[7]
  MIC: ≥ 32 µg/mL
[8]
  MIC: ≥ 32 µg/mL
[9]
  MIC: ≥ 32 µg/mL

## CCCCCCCCCC(=O)N[C@@H](Cc1c[nH]c2ccccc12)C(=O)N[C@@H](CC(N)=O)C(=O)N[C@@H](CC(=O)O)C(=O)N[C@@H]1C(=O)NCC(=O)N[C@@H](CCCN)C(=O)N[C@@H](CC(=O)O)C(=O)N[C@H](C)C(=O)N[C@@H](C(C)CC(=O)O)C(=O)NCC(=O)N[C@H](CO)C(=O)N[C@@H](C(C)CC(=O)O)C(=O)N[C@@H](CC(=O)c2ccccc2N)C(=O)O[C@@H]1C (single isomer, unassigned)
[1]
  MIC: ≥ 32 µg/mL
[2]
  MIC: ≥ 32 µg/mL
[3]
  MIC: ≥ 32 µg/mL
[4]
  MIC: ≥ 32 µg/mL
[5]
  MIC: ≥ 32 µg/mL
[6]
  MIC: ≥ 32 µg/mL
[7]
  MIC: ≥ 32 µg/mL
[8]
  MIC: ≥ 32 µg/mL
[9]
  MIC: ≥ 32 µg/mL

## CCCCCCCCCC(=O)N[C@@H](Cc1c[nH]c2ccccc12)C(=O)N[C@@H](CC(N)=O)C(=O)N[C@@H](CC(=O)O)C(=O)N[C@@H]1C(=O)NCC(=O)N[C@@H](Cc2ccccc2)C(=O)N[C@@H](CC(=O)O)C(=O)N[C@H](C)C(=O)N[C@@H](CC(=O)O)C(=O)NCC(=O)N[C@H](CO)C(=O)N[C@@H]([C@@H](C)CC(=O)O)C(=O)N[C@@H](CC(=O)c2ccccc2N)C(=O)O[C@@H]1C
[1]
  MIC: ≥ 32 µg/mL
[2]
  MIC: ≥ 32 µg/mL
[3]
  MIC: 16 µg/mL
[4]
  MIC: 16 µg/mL
[5]
  MIC: 16 µg/mL
[6]
  MIC: ≥ 32 µg/mL
[7]
  MIC: ≥ 32 µg/mL
[8]
  MIC: ≥ 32 µg/mL
[9]
  MIC: ≥ 32 µg/mL

## CCCCCCCCCC(=O)N[C@@H](Cc1c[nH]c2ccccc12)C(=O)N[C@@H](CC(N)=O)C(=O)N[C@@H](CC(=O)O)C(=O)N[C@@H]1C(=O)NCC(=O)N[C@@H](CC(=O)O)C(=O)N[C@@H](CC(=O)O)C(=O)N[C@H](C)C(=O)N[C@@H](CC(=O)O)C(=O)NCC(=O)N[C@H](CO)C(=O)N[C@@H]([C@@H](C)CC(=O)O)C(=O)N[C@@H](CC(=O)c2ccccc2N)C(=O)O[C@@H]1C
[1]
  MIC: ≥ 32 µg/mL
[2]
  MIC: ≥ 32 µg/mL
[3]
  MIC: 16 µg/mL
[4]
  MIC: 8 µg/mL
[5]
  MIC: 16 µg/mL
[6]
  MIC: ≥ 32 µg/mL
[7]
  MIC: ≥ 32 µg/mL
[8]
  MIC: ≥ 32 µg/mL
[9]
  MIC: ≥ 32 µg/mL

## C[C@H]1NC(=O)[C@H](CC(=O)O)NC(=O)[C@H](CCCN)NC(=O)CNC(=O)[C@@H](NC(=O)[C@H](CC(=O)O)NC(=O)[C@H](CC(N)=O)NC(=O)[C@H](Cc2c[nH]c3ccccc23)NC(=O)c2ccc(C#Cc3ccc(-c4ccccc4)cc3)cc2)[C@@H](C)OC(=O)[C@H](CC(=O)c2ccccc2N)NC(=O)[C@H]([C@@H](C)CC(=O)O)NC(=O)[C@@H](CO)NC(=O)CNC(=O)[C@H](CC(=O)O)NC1=O
[1]
  MIC: 1 µg/mL
[2]
  MIC: 1 µg/mL
[3]
  MIC: 2 µg/mL
[4]
  MIC: 1 µg/mL
[5]
  MIC: 2 µg/mL
[6]
  MIC: 2 µg/mL
[7]
  MIC: 2 µg/mL
[8]
  MIC: 0.5 µg/mL
[9]
  MIC: 0.5 µg/mL
